The values that follow come from patent publication EP2633855A1, “Protease inhibitors for treating Trichomonas gallinae infections” (Veterinärmedizinische Universität Wien, priority 2012, dated 2013).

Square brackets hold non-standard residues; d marks the D form. Peptide text beside a SMILES is read from it. * marks the point of attachment. Sta = CC(C)C[C@H](N)[C@@H](O)CC(=O)O; Isovaleryl = CC(C)CC(=O)*

In data set [1] the test system is peptidase activity in T. gallinae cell-free filtrates. In words: Conventional 1-D SDS-PAGE of cell-free filtrates with and without peptidase inhibitors. As to conditions: clone 5895-C1/06 P49. The class given is biochemical. Here is the method:
(§1) For analysis in one- (1-D) and two-dimensional (2-D) zymogram and conventional SDS PAGE the filtrate was prepared in the following way: T. gallinae clonal culture was grown in Hollander fluid (HF) medium as described recently (Amin et al., Exp. Parasitol. 124 (2010), 202-208). After 24 h of incubation, the trichomonad culture was centrifuged at 3300 x g for 5 min; the pellet was washed three times in phosphate buffer saline (PBS, pH 7.2) and was then suspended in 1 ml HF medium without serum. Motile trichomonads were counted by a Neubauer cell counting chamber (Reichert, Buffalo, NY). The concentration of the inoculum was adjusted to 10^7 motile trophozoites. 10^7 trichomonad cells were grown for 3, 6, 16, 24 h in 10 ml HF medium without serum and the cell-free filtrate was prepared. The trichomonad culture was centrifuged at 3300 x g for 5 min, and then the supernatant from the culture was filtered through 0.22 µm cellulose acetate filters (Millipore, VWR). Afterwards, 1 mM PMSF, 5 µM of Pepstatin A, 1 mM TLCK and 270 µM E-64 were added to the cell-free filtrate and incubated for 30 min on ice before concentrating the proteins. Two types of filters were used to concentrate the proteins of the cell-free filtrate. Firstly, CEN-TRIPREP® Centrifugal Filter Device 3K (Millipore, Vienna, Austria) was applied to reduce the initial volume of the filtrate (15ml) to 500 µl. After that, the samples were more concentrated using Amicon® Ultra-0.5 3K centrifugal filter device (Millipore, Vienna, Austria) to obtain a final volume of 100 µl. Both types of filters were used following manufacturer's instructions. With the samples for 2-dimensional (2-D) sodium dodecyl sulphate (SDS)-polyacrylamide gel electrophoresis (PAGE) buffer was exchanged (three times) to 10 mM Tris-Cl pH 7.2 by using the same Amicon® Ultra-0,5 3K centrifugal filter device (Millipore,Vienna, Austria). For all samples the protein concentration was measured by Bradford Reagent (Fermentas, Thermo Scientific).
(§2) For one dimension (1-D) zymographic analysis, 24 µg of concentrated p 183 proteins from cell free filtrates with and without peptidase inhibitors were separated by discontinuous SDS-PAGE (8%) copolymerized with 0.2% gelatin as substrate. In parallel, the same samples were investigated by conventional 1-D SDS-PAGE (8%). After electrophoresis, the substrate gel was incubated in 2.5% Triton X-100 (Bio-Rad Laboratories GmbH, Vienna, Austria) for 1 h at room temperature to remove SDS. Subsequently the peptidases were activated by incubating the gel in zymogram development buffer (Bio-Rad Laboratories GmbH, Vienna, Austria) for 24 h at 37 °C. […]

Data set [2] has the same test system. In words: One-dimensional substrate (0.2% gelatin) SDS-PAGE zymogram of cell-free filtrates. The class given is biochemical. To be noted: clone 5895-C1/06 P49 and P130. Here is the method:
as §1, §2

In data set [3] the test system is LMH monolayer. In words: Cytopathic effect of T. gallinae cell-free filtrate on LMH monolayer (monolayer detachment, lesion score). The class given is cell-based, chicken. As to conditions: compared with filtrate without inhibitors. Here is the method: Permanent chicken liver (LMH) cells were grown in Medium 199 + Earle's salts + L-Glutamine (Invitrogen/Gibco, Paisley, U.K.). The medium was supplemented with 10% of FBS, 10% Tryptose Phosphate broth, penicillin (40,000 IU/ml) and streptomycin ([…]) (all Invitrogen/Gibco, Paisley, U.K). One milliliter of the media suspension containing 1x10^6 cells was inoculated into 75 cm^2 flasks with filtered caps (Sarstedt, Wiener Neudorf, Austria) containing 6 ml medium. Cells were kept in a controlled atmosphere of 5% CO2 at 37°C and around 85-90% humidity. After 72 h of incubation, a confluent monolayer of LMH cells was obtained with an average of 7x10^6 cells per flask. Cells were passaged every three to four days depending on their density.
(§3) For the analysis on LMH monolayers cell-free filtrate was prepared in the following way: 10^7 cells of a clonal culture of T. gallinae were incubated at 37°C for 24 h in the same medium as used for growth of LMH. Before incubation the protozoal cells were washed three times in PBS, (pH 7.2), trichomonad culture was centrifuged at 3300 x g for 5 min and then the supernatant from the culture was filtered through 0.22 µm cellulose acetate filters (Millipore, VWR).
Each monolayer was investigated visually by an inverted 158 light microscope to detect the effect of the cell-free filtrates on LMH monolayer. Assesment of the monolayer was performed as recently described (Amin et al., Vet.Parasitol. (2011), doi: 10.1016/j.vetpar.2011.11.037).
Firstly, preliminary experiments were done to establish the concentration of each peptidase inhibitor which was not toxic to the monolayer cell culture. In these initial experiments different concentrations of the following peptidase inhibitors were added to not-infected monolayer: 0.2 mM, 0.5 mM, 1 mM Phenylmethylsulfonyl fluoride (PMSF) as serine peptidase inhibitor, 1 µM, 2.5 µM, 5 µM pepstatin A as aspartic peptidase inhibitor, 135 µM, 540 µM, 1 mM N-α-p-Tosyl-L-Lysine chloromethyl ketone (TLCK) as cysteine and some serine peptidase inhibitor, and 70 µM 140 µM, 270 µM L-3-carboxyl-2,3-trans-epoxysuccinylleucylamido (4-guanidino) butane (E-64) as cysteine peptidase inhibitor (all purchased from Sigma-Aldrich, Steinheim, Germany).

The subject of data set [4] is T. gallinae clone 5895-C1/06 P18. In words: Infection of spf chicken embryos with T. gallinae coincubated with peptidase inhibitors (mortality, necropsy, histology, PCR, ISH). The class given is in vivo, Trichomonas gallinae. To be noted: for detection of trichomonad nucleic acid by ISH / histopathological examination of different organs of infected embryos: spf chicken embryos. Here is the method:
(§4) The axenic clonal cultures of T. gallinae were grown in Hollander fluid (HF) medium, as described above (Amin et al., 2010). At first, clonal cultures which underwent only a few passages were investigated. Higher passages were obtained by transferring 1 ml of the respective culture into 9 ml of fresh HF medium every 48 h. Assessing the virulence as well as the effect of peptidase inhibitors was performed with an equal passage number (P18). After 24 h of incubation, the cultures were centrifuged at 3300 x g for 5 min (Hettich Rotanta 460, Tuttlingen, Germany). The pellet was washed three times by addition of phosphate buffer saline (PBS, pH 7.2) followed by centrifugation. For counting cells were suspended in 1 ml PBS buffer and motile trichomonads were determined by a Neubauer cell counting chamber (Reichert, Buffalo, NY, USA). The concentration of the inoculum was adjusted to contain approximately 5x10^6 actively motile trophozoites suspended in 200 µl PBS buffer. The viability of trichomonad cells was evaluated using trypan blue staining.
(§5) For each treatment, ten 9-day old embryonated spf chicken eggs were inoculated with 200 µl of the individual sample of protozoa suspended in sterile PBS via the allantoic cavity following a standard egg inoculation procedure (Senne, 1998). In addition, ten eggs were inoculated in the same way with sterile PBS with and without an adjusted concentration of peptidase inhibitors, to be used as a control. The inoculated eggs were sealed with melted paraffin and incubated at 37°C at a relative humidity of 55-60%. The survival of the embryos was monitored by candling the eggs daily. At the end of the incubation period (10 days) the eggs were placed at -20°C for two hours to kill the embryos and to avoid hatching. The allantoic fluid was harvested and examined microscopically for the detection of flagellates, before the embryos were necropsied. Afterwards, samples from different organs (liver, heart, lung, proventriculus, gizzard, kidney, spleen, and intestine) were preserved in 10% buffered neutral formalin and later on embedded in paraffin wax for histological examination. […] Additionally, samples from liver and gut were preserved at -20°C for polymerase chain reaction (PCR). DNA was extracted from tissue samples applying the Dneasy® Tissue Kit (Qiagen, Vienna, Austria), according to the manufacturer instructions. PCR was performed following the protocol of Grabensteiner and Hess (Vet. Parasitol. 142 (2006), 223-230). The embryos that died during the experiments were exposed to the same examination procedures. During necropsy autoclaved scissors and disposable tweezers were used for collecting the samples to avoid cross contamination.

The subject of data set [5] is LMH cells. In words: CellTiter 96 aqueous one solution cytotoxicity assay of cell-free filtrate on LMH cells. The class given is cell-based, chicken. To be noted: Gallus gallus; 270 µM E-64; 72 h of incubation; clone 5895-C1/06, passage 18; filtrate without E-64: 70.9%; read-out: cytotoxicity of the cell-free filtrate on LMH cells in the presence of the inhibitor. Here is the method: as §3
In order to investigate the cytotoxicity of cell-free filtrate on cell culture, CellTiter 96® aqueous one solution cell proliferation assay (Promega Corporation, Madison, USA) was used following manufacturer's instructions. The cell-free filtrate from 10^7 trichomonad cells was prepared as described above and 270 µM of E-64 as cysteine peptidase inhibitor was added to cell-free filtrate before its incubation with the monolayer. Cytotoxicity assay was performed as described recently by Amin et al. (2011).

Data set [6] concerns embryonated spf chicken eggs. In words: Toxicity of peptidase inhibitors in PBS to non-infected spf chicken embryos (control groups). The class given is in vivo. Here is the method: as §5, with “PCR was performed following the protocol of Grabensteiner and Hess (Vet. Parasitol. 142 (2006), 223-230). The embryos that died during the experiments were exposed to the same examination procedures. During necropsy autoclaved scissors and disposable tweezers were used for collecting the samples to avoid cross contamination.” left out

The test system of data set [7] is Entamoeba histolytica. As to conditions: SCID mice; preincubation of the trophozoites with the inhibitor; cited from earlier work.
Data set [8] concerns T. gallinae trophozoites. In words: Viability of trichomonads with peptidase inhibitors (trypan blue staining). The class given is cell-based. As to conditions: read-out: optimum concentration that had no effect on the viability of T. gallinae trophozoites. Here is the method:
as §4

For the molecule `O=S(=O)(F)Cc1ccccc1` [PMSF, Phenylmethylsulfonyl fluoride], the “band pattern in conventional SDS-PAGE” value in data set [1] (1 mM PMSF) is listed as “this pattern was not prominent”. Also, the “proteolytic bands on zymograms of cell-free filtrates” value in data set [2] (1 mM PMSF) is reported as “same proteolytic regions as the sample without inhibitors”. Also, in data set [3] (1 mM PMSF added to cell-free filtrate of clone 5895-C1/06), the “cytopathic effects induced by trichomonads (detachment of the monolayer)” value (from here on “cytopathic effects induced”) is “partially inhibited cytopathic effects”.

As to `CC(C)CC(=O)N[C@H](C(=O)N[C@H](C(=O)N[C@@H](CC(C)C)[C@@H](O)CC(=O)N[C@@H](C)C(=O)N[C@@H](CC(C)C)[C@@H](O)CC(=O)O)C(C)C)C(C)C` [Pepstatin A, pepstatin A] (Isovaleryl-VV[Sta]A[Sta]-OH), the “band pattern in conventional SDS-PAGE” value in data set [1] (5 µM Pepstatin A) is on record as “this pattern was not prominent”. Moreover, the “proteolytic bands on zymograms of cell-free filtrates” value in data set [2] (5 µM Pepstatin A) is reported as “same proteolytic regions as the sample without inhibitors”. Besides, the “cytopathic effects induced” value in data set [3] (5 µM Pepstatin A added to cell-free filtrate of clone 5895-C1/06) is reported as “no inhibitory effect”.

For the molecule `CC(C)CC(NC(=O)C1OC1C(=O)O)C(=O)NCCCCNC(=N)N` [E-64, L-3-carboxyl-2,3-trans-epoxysuccinylleucylamido (4-guanidino) butane], in data set [4] (270 µM E-64), the “PCR results: infection in the presence versus absence of inhibitor” value was “no considerable differences”, the “detection of trichomonad nucleic acid by ISH” value is listed as “nucleic acid of trichomonds was demonstrated by ISH in the hepatic parenchyma” and the “histopathological examination of different organs of infected embryos” value is given as “no histological changes”. In data set [4] (270 µM E-64 coincubated), the “PCR results from the liver and gut of infected embryos” value was “positive PCR results”. Moreover, the “band pattern in conventional SDS-PAGE” value in data set [1] (270 µM E-64) is “pattern of sharp bands”. Moreover, the cytotoxicity at 270 µM in data set [5] was 37.1%. In addition, in data set [2] (270 µM E-64), the “proteolytic bands on zymograms of cell-free filtrates” value was “No proteolytic bands were observed”. Moreover, the “cytotoxic effect on the embryos, mortalities or pathomorphological changes in negative control groups” value in data set [6] (270 µM E-64 in PBS) is “no cytotoxic effect on the embryos”. Further, the “liver abscesses produced by Entamoeba histolytica” value in data set [7] was “greatly reduced”. Further, the “cytopathic effects induced” value in data set [3] (270 µM E64 added to cell-free filtrate of clone 5895-C1/06) is given as “best inhibition”. For the same molecule, the “cytopathic effects induced” value in data set [3] (270 µM E64 added to cell-free filtrate of clone 5895-C1/06, listed as E64) is given as “partially inhibited cytopathic effects”. For the same molecule, in data set [8], the MNTC amounted to 270 µM.

As for `Cc1ccc(S(=O)(=O)N[C@@H](CCCCN)C(=O)CCl)cc1` [TLCK, N-α-p-Tosyl-L-Lysine chloromethyl ketone], in data set [4] (675 µM TLCK coincubated), the “PCR results from the liver and gut of infected embryos” value is “positive PCR results”. In addition, the “PCR results: infiltration of the flagellate to the liver” value in data set [4] (675 µM TLCK, compared with E-64) was “more distinct inhibitory effect on the infiltration of the flagellate to the liver than E-64”. For the same molecule, in data set [4] (675 µM TLCK), the “detection of trichomonad nucleic acid by ISH” value is recorded as “nucleic acid of trichomonds was demonstrated by ISH in the hepatic parenchyma” and the “histopathological examination of different organs of infected embryos” value is listed as “no histological changes”. The “band pattern in conventional SDS-PAGE” value in data set [1] (1 mM TLCK) is “pattern of sharp bands”. For the same molecule, in data set [2] (1 mM TLCK), the “proteolytic bands on zymograms of cell-free filtrates” value was “No proteolytic bands were observed”. In addition, in data set [6] (675 µM TLCK in PBS), the “cytotoxic effect on the embryos, mortalities or pathomorphological changes in negative control groups” value was “no cytotoxic effect on the embryos”. Also, the “cytopathic effects induced” value in data set [3] (135 µM TLCK added to cell-free filtrate of clone 5895-C1/06) was “partially inhibited cytopathic effects”. Further, the MNTC in data set [8] was 675 µM.
